From patent US12616760B2, “Synthetic cyclic peptide mimetics” (priority 2020, dated 2026)
Read-outs that look alike come from different tables or passages of the source. Numbered stars: 1 amine (or outer) side, 2 acyl side, 3 side chain; on linkers, the order of the positions; unused ones are H or OH. Square brackets hold non-standard residues; d marks the D form. Peptide text beside a SMILES is read from it. * marks the point of attachment. NOTA = O=C(O)CN1CCN(CC(=O)O)CCN(CC(=O)*)CC1; azaPhe = O=C(N(Cc1ccccc1)N[*:1])[*:2]; Nle = CCCC[C@H](N)C(=O)O; azaGly = NNC(=O)O

Legend:
Aβ40 = target: T1, Aβ40 (Homo sapiens, UniProt P05067); assay: Thioflavin T (ThT) fluorescence assay of Aβ40 aggregation; type: biochemical; conditions: ThT; for Inhibition of amyloidogenic activity: Table 4
T1 construct: The extent of Aβ40 aggregation in the presence of increasing concentrations of azacyclopeptides
Procedure: Amyloid generation can be identified and quantified using the thioflavin T (ThT) fluorescence dye assay. […] Agents that bind and inhibit aggregation of Aβ diminish ThT fluorescence relative to untreated Aβ. The extent of Aβ40 aggregation in the presence of increasing concentrations of azacyclopeptides and azasulfurylcyclopeptide 55 was evaluated by the ThT assay. Fluorescence of Aβ40 that was aged for 48 h was used as control, defined as 0% anti-amyloidogenic activity, and compared with fluorescence in the presence of cyclic peptide mimics at increasing concentrations to measure anti-amyloidogenic activity.

CL2006 C. elegans strain = system: CL2006 C. elegans strain; design: species or system Caenorhabditis (C.) elegans; conditions: in vivo
Excerpt: Compound 3 was used in two in vivo transgenic Caenorhabditis (C.) elegans models expressing human Aβ42. The CL2006 C. elegans strain produces constitutively a body-wall muscle-specific Aβ42, the aggregation of which causes age-dependent paralysis, motility dysfunction and consequently short lifespan. The CL2355 strain expresses a temperature-inducible pan-neuronal Aβ42, accumulation of which leads to deficits in chemotaxis, associative learning and thrashing in liquid. The CL2006 mutant and control CL802 wild type worms had respective lifespans of 13.6 and 15.6 days (P<0.005, FIG. 3A).

Aβ species = assay: PET imaging of ^64Cu-conjugates in 5×FAD mice; type: in vivo; conditions: for Aβ uptake (activity in the Aβ species) / Aβ uptake relative to ^64Cu-1-NOTA: 6-month old 5×FAD mice; for Aβ uptake (activity in the Aβ species): 20 h post-injection
Procedure: (§1) Images were taken 3 weeks apart on the same 5×FAD mouse for ^64Cu-conjugate 43 and ^11C-PIB (FIGS. 1B and C) using the 2-(4′-[^11C]methylaminophenyl)-6-hydroxybenzothiazole (^11C-PIB) compound. Use of ^11C-PIB is limited to 1 h due to short half-life (t1/2=20.4 min). […] In control 44 day-old WT mouse at 1-day post-injection of ^64Cu-conjugate 43, brain uptake is very low (FIG. 1D). Non-transgenic littermates (labeled as wild type (WT) controls in the text and FIG. 1D) were housed in the same manner as 5×FAD mice and used for comparison.
(§2) Amyloid plaque detection was evaluated in 4.5-7-month-old Tg [5×FAD] mice and age-matched wild-type controls using the ^11C-PIB compound. 5×FAD mice carry both mutant human APP(695) with the Swedish (K670N, M671L), Florida ([…]), and London (V717I) Familial Alzheimer's Disease (FAD) mutations and human PS1 harboring two FAD mutations, M146L and L286V. 5×FAD mice develop plaque formation beginning at 2 months and cognitive deficits at 4-6 months. […] Amyloid beta of ^64Cu-conjugate 40 in hippocampus at 1 h post injection (1.285±0.034% ID/g) was similar to that of ^11C-PIB (1.038±0.028% ID/g. FIG. 1) in the cortex.
(§3) Red and blue colours represent respectively highest and zero uptake. […] Different intensity scales were used for PET images. […] Images were taken 3 weeks apart on different mouse for ^64Cu-43 and ^11C-PIB. Co-registration of experimental image data with brain mask to mouse atlas space was achieved to identify volumes of interest. 1. Striatum; 2. Cortex; 3. Hippocampus; 4. Thalamus; 5. Cerebellum; 6. Basal forebrain septum; 7. Hypothalamus; 8. Amygdala; 9. Brain stem; 10. Central gray; 11. […] Olfactory bulb; 13. Midbrain; 14.

[1] = PET imaging and biodistribution, formulation tests in Balb/c mice; type: in vivo
Procedure: Different formulations were tested with the ^64Cu-1-NOTA conjugate to investigate the solubility of the PET tracer in vivo and select the best formulation for PET imaging studies. […] For further in vivo studies, 8% DMSO and 9% sucrose (for azaconjugates) were used.

[2] = PET imaging of ^64Cu-conjugates in 5×FAD mice; type: in vivo; conditions: mouse, in vivo, total radioactivity
Procedure: as §1, §2, §3

[3] = system: rat pheochromocytoma PC12 cells; type: cell-based; design: Cells survival (%): concentration or dose not given beside the values; conditions: PC12, MTT
Procedure: Considering that self-assembly and aggregation of Aβ are key components of AD pathogenesis, the ability of azaGly-cyclopeptides 2-7 to reduce Aβ-induced toxicity was next tested in rat pheochromocytoma PC12 cells. Cells were incubated for 24 h with Aβ40 (10 μM) that had been aged for 48 h in the presence and absence of increasing concentrations of the azacyclopeptides. Cell viability was assessed using the 3-(4,5-dimethylthiazol-2-yl)-2,5-diphenyltetrazolium bromide (MTT) survival assay (Table 2). In this assay, viable cells reduce permeable MTT by active metabolism to produce a purple-colored formazan product with absorbance maximum near 570 nm. Dead cells lose the ability to convert MTT into formazan. The quantity of formazan is therefore directly proportional to the number of viable cells and measurable over time by recording changes in absorbance using a spectrophotometer. Neurons are susceptible to the lethal effects of misfolded proteins which are likely to aggregate at increased concentration. The pheochromocytoma (PC12) cell line is commonly used in in vitro studies to examine neuronal variation and neurotoxicity as a model of neurodegenerative disease.

T1 sequence (P05067 672-711 limits assumed): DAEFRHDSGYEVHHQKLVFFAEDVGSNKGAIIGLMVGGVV

Row | Molecule | Inhibition of amyloidogenic activity (Aβ40; Aβ:peptide 1:1) [%] | Inhibition of amyloidogenic activity (Aβ40; Aβ:peptide 1:5) [%] | Inhibition of amyloidogenic activity (Aβ40; Aβ:peptide 1:10) [%] | Cells survival (%) ([3]; Table 4, Aβ:peptide 1:1) | Cells survival (%) ([3]; Table 4, Aβ:peptide 1:5) | Inhibition of amyloidogenic activity(%) (Aβ40; Table 5, Aβ:peptide 1:1) | Inhibition of amyloidogenic activity(%) (Aβ40; Table 5, Aβ:peptide 1:5) | Inhibition of amyloidogenic activity(%) (Aβ40; Table 5, Aβ:peptide 1:10) | Cells survival (%) ([3]; Table 5, Aβ:peptide 1:1) | Cells survival (%) ([3]; Table 5, Aβ:peptide 1:5) | further results
1 | CCCC[C@@H]1NC(=O)[C@@H](CC(C)C)NC(=O)[C@H](CCCCN)NC(=O)NNC(=O)[C@H](Cc2c[nH]cn2)NC(=O)[C@@H](Cc2c[nH]c3ccccc23)NC1=O [Compound 3, c(D-Leu-L-Nle-D-Trp-L-His-Gly*-L-Lys)] (cyclo(K[dL][Nle][dW]H[azaGly])) | – | – | – | – | – | – | – | – | – | – | Inhibition of amyloidogenic activity(%) (Aβ40; Aβ:peptide 1:1, 10 μM soluble Aβ40): 83.7%; Inhibition of amyloidogenic activity(%) (Aβ40; Aβ:peptide 1:5, 10 μM soluble Aβ40): 81.3%; Inhibition of amyloidogenic activity(%) (Aβ40; Aβ:peptide 1:10, 10 μM soluble Aβ40): 83.7%; toxicity and longevity (CL2006 C. elegans strain): no toxicity and no influence on wild type CL802 worm longevity
2 | [11CH3]Nc1ccc(-c2nc3ccc(O)cc3s2)cc1 [^11C-PIB, 2-(4′-[^11C]methylaminophenyl)-6-hydroxybenzothiazole, reference compound] | – | – | – | – | – | – | – | – | – | – | uptake in the cortex (Aβ species; 5×FAD mice, ^11C-PIB): 1.038±0.028 % ID/g
3 | CCCC[C@@H]1NC(=O)[C@@H](CC(C)C)NC(=O)[C@H](CCCCNC(=O)CN2CCN(CC(=O)O)CCN(CC(=O)O)CC2)NC(=O)[C@@H](CO)NC(=O)[C@H](Cc2c[nH]cn2)NC(=O)[C@@H](Cc2c[nH]c3ccccc23)NC1=O [^64Cu-1-NOTA, metal not drawn] (cyclo([dL][Nle][dW]H[dS]K(NOTA))) | – | – | – | – | – | – | – | – | – | – | Aβ uptake (activity in the Aβ species) (Aβ species): 0.430±0.010 % ID/g; organ uptake ([1]; Intra-lipid (20% IV fat-emulsion) formulations): lower uptake in the lungs and a higher uptake in the gastrointestinal tract and gallbladder; organ uptake ([1]; formulated in 8% DMSO): High lung and liver uptake
4 | CCCC[C@@H]1NC(=O)N(Cc2ccccc2)NC(=O)[C@H](CCCCNC(=O)CN2CCN(CC(=O)O)CCN(CC(=O)O)CC2)NC(=O)[C@@H](CO)NC(=O)[C@H](Cc2c[nH]cn2)NC(=O)[C@@H](Cc2c[nH]c3ccccc23)NC1=O [^64Cu-conjugate 40, metal not drawn] (cyclo([azaPhe][Nle][dW]H[dS]K(NOTA))) | – | – | – | – | – | – | – | – | – | – | tissue uptake ([2]; 5×FAD mice at 4.5 months, read-out: accumulation of activity in the Aβ species): 0.165 ± 0.005 %ID/g; tissue uptake at 1 h ([2]; 5×FAD mice, 1 h post injection, read-out: uptake in hippocampus): 1.28 ± 0.034 %ID/g; tissue uptake at 20 h ([2]; 6-month old 5×FAD mice, 20 h post-injection, read-out: Aβ uptake (activity in the Aβ species)): 2.1 ± 0.059 %ID/g; time of highest activity value in Aβ species (Aβ species; 5×FAD mice, post injection): 1 days; Aβ uptake relative to ^64Cu-1-NOTA (Aβ species): approximatively five times superior; Aβ uptake (activity in the Aβ species) (Aβ species): 2.102±0.059 % ID/g
5 | CCCC[C@@H]1NC(=O)[C@@H](CC(C)C)NC(=O)[C@H](CCCCNC(=O)CN2CCN(CC(=O)O)CCN(CC(=O)O)CC2)NC(=O)NNC(=O)[C@H](Cc2c[nH]cn2)NC(=O)[C@@H](Cc2c[nH]c3ccccc23)NC1=O [^64Cu-conjugate 43, metal not drawn] (cyclo([dL][Nle][dW]H[azaGly]K(NOTA))) | – | – | – | – | – | – | – | – | – | – | Aβ uptake relative to ^64Cu-1-NOTA (Aβ species): approximatively five times superior; Aβ uptake (activity in the Aβ species) (Aβ species): 2.030±0.056 % ID/g; uptake into the thalamus (Aβ species; Tg female 5×FAD AD mice, 9% sucrose in saline, 1-day post-injection): increased with age from 44 to 72 days; brain uptake (Aβ species; control 44 day-old WT mouse, 1-day post-injection): very low
6 | c(D-Leu-L-Nle-D-Trp-L-His-D-Ser-Lys*) [Compound 8] | 54.4 | 77.8 | 80.9 | 80.1 | 91.3 | – | – | – | – | – | –
7 | c(D-Leu-L-Nle-D-Trp-L-His-Hse*-L-Lys) [Compound 9] | 8.3 | 77.9 | 77.2 | 82.8 | 97.9 | – | – | – | – | – | –
8 | c(D-Leu-L-Nle-D-Trp-L-His-IPrTyr*-L-Lys) [Compound 10] | – | – | – | – | – | 8.2 | 85.2 | 86.2 | 75.4 | 83.4 | –
9 | c(D-Leu-L-Nle-D-Trp-Phe*-D-Ser-L-Lys) [Compound 12] | – | – | – | – | – | 54.4 | 77.7 | 80.9 | 70.1 | 87.9 | –
10 | c(D-Leu-L-Nle-D-Trp-Pra*-D-Ser-L-Lys) [Compound 14] | – | – | – | – | – | 76.9 | 81.2 | 81.4 | 71.7 | 83.5 | –
11 | c(D-Leu-L-Nle-D-Trp-Tal*-D-Ser-L-Lys) [Compound 13] | 58.0 | 72.6 | 78.4 | 70.8 | 96.3 | – | – | – | – | – | –
12 | c(D-Leu-L-Nle-Itr*-L-His-D-Ser-L-Lys) [Compound 15] | 78.0 | 81.6 | 86.1 | 78.8 | 71.7 | – | – | – | – | – | –
13 | c(D-Leu-Nle*-D-Trp-L-His-D-Ser-L-Lys) [Compound 16] | 72.9 | 76.4 | 85.1 | 86.3 | 94.5 | – | – | – | – | – | –
14 | c(D-Leu-Phe*-D-Trp-L-His-D-Ser-L-Lys) [Compound 17] | – | – | – | – | – | 3.5 | 36.9 | 79.8 | 61.8 | 69.5 | –
15 | c(Leu*-L-Nlc-D-Trp-L-His-D-Ser-L-Lys) [Compound 18] | 15.4 | 17.1 | 37.5 | 72.8 | 76.3 | – | – | – | – | – | –
16 | c(Phe*-L-Nle-D-Trp-L-His-D-Ser-L-Lys) [Compound 19] | – | – | – | – | – | 12.5 | 54.5 | 61.2 | 73.0 | 74.5 | –
